Broadly, the EC50 is the concentration that produces a half-maximal response.

Read-outs that look alike come from different tables or passages of the source. A value given as a limit tells only on which side of the number the result lay.

The target in test [1] is human CB1 receptors (Homo sapiens (Human), UniProt P21554). As to the kind of experiment: cAMP assay, CHO cells expressing human CB1 receptors. Type of test: cell-based. On the procedure:
(§1) CHO cells expressing human CB1 or CB2 receptors are seeded 17-24 hours prior to the experiment 50.000 cells per well in a black 96 well plate with flat clear bottom (Corning Costar #3904) in DMEM (Invitrogen No. 31331), 1×HT supplement, with 10% fetal calf serum and incubated at 5% CO2 and 37° C. in a humidified incubator. The growth medium was exchanged with Krebs Ringer Bicarbonate buffer with 1 mM IBMX and incubated at 30° C. for 30 min. Compounds were added to a final assay volume of 100 μl and incubated for 30 min at 30° C. Using the cAMP-Nano-TRF detection kit the assay (Roche Diagnostics) was stopped by the addition of 50 μl lysis reagent (Tris, NaCl, 1.5% Triton X100, 2.5% NP40, 10% NaN3) and 50 μl detection solutions (20 μM mAb Alexa700-cAMP 1:1, and 48 μM Ruthenium-2-AHA-cAMP) and shaken for 2 h at room temperature. The time-resolved energy transfer is measured by a TRF reader (Evotec Technologies GmbH), equipped with a ND:YAG laser as excitation source. The plate is measured twice with the excitation at 355 nm and at the emission with a delay of 100 ns and a gate of 100 ns, total exposure time 10 s at 730 (bandwidth 30 nm) or 645 nm (bandwidth 75 nm), respectively.
(§2) EC50 values were determined using Activity Base analysis (ID Business Solution, Limited).
In general terms: cAMP levels reflect the balance of adenylyl cyclase and phosphodiesterase activity.

The target in test [2] is human CB2 receptors (Homo sapiens (Human), UniProt P34972). Description: cAMP assay, CHO cells expressing human CB2 receptors. Format: cell-based. The protocol:
as §1, §2

The mark [3] stands for this setting: functional cAMP assay, CHO cells expressing human CB1, read-out: human CB1 EC50.
[4] abbreviates: functional cAMP assay, CHO cells expressing human CB2, read-out: human CB2 EC50.

Sequence of human CB1 receptors (P21554 whole entry): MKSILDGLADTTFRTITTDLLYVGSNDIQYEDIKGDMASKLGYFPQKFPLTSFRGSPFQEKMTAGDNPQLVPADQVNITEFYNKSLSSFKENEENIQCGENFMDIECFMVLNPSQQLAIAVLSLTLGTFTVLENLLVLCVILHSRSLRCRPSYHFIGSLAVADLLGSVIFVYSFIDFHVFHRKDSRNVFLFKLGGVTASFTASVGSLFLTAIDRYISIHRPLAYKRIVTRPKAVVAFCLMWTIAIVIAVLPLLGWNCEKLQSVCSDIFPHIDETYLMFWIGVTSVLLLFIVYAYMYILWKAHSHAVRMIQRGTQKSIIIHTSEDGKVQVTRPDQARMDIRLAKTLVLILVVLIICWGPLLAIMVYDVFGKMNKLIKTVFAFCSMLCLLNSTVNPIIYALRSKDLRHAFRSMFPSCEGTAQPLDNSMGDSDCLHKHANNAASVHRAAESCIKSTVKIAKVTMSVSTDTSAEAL
Sequence of human CB2 receptors (P34972 whole entry): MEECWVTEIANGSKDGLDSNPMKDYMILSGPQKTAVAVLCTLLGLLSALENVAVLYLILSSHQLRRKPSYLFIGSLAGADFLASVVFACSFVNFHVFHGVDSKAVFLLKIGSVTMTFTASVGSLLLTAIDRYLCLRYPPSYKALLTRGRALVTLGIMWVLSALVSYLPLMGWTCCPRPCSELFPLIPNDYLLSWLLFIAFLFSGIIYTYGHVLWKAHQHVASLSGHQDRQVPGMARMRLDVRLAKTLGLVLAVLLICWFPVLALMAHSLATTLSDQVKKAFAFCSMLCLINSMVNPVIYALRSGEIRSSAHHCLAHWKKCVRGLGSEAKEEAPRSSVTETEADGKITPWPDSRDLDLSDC

Regarding `NC(=O)CC1(NC(=O)c2ccc(N3CC(F)(F)C3)c(OCC3CC3)n2)CS(=O)(=O)C1` [Example 61, 6-Cyclopropylmethoxy-5-(3,3-difluoro-azetidin-1-yl)-pyridine-2-carboxylic acid (3-carbamoylmethyl-1,1-dioxo-1λ6-thietan-3-yl)-amide], the concentration giving a half-maximal response (EC50) was 7750 nM in test [1] (setting [3]) and 1 nM in test [2] (setting [4]).

Consider `COC(=O)CC1(NC(=O)c2ccc(C3CC3)c(OCC3CC3)n2)CCN(C(=O)OC(C)(C)C)CC1` [Example 45, 4-[(5-Cyclopropyl-6-cyclopropylmethoxy-pyridine-2-carbonyl)-amino]-4-methoxycarbonylmethyl-piperidine-1-carboxylic acid tert-butyl ester], for which the EC50 is > 10000 nM in test [1] (setting [3]) and 237 nM in test [2] (setting [4]).

For the compound `CCOC(=O)CC1(NC(=O)c2ccc(N3CC(F)(F)C3)c(OCC3CC3)n2)CS(=O)(=O)C1` [Example 51, (3-{[6-Cyclopropylmethoxy-5-(3,3-difluoro-azetidin-1-yl)-pyridine-2-carbonyl]-amino}-1,1-dioxo-1λ6-thietan-3-yl)-acetic acid ethyl ester], the results for the EC50 in test [1] (setting [3]) and in test [2] (setting [4]) were > 10000 nM and 57 nM, respectively.

In the case of `CNC(=O)CC(C)(C)NC(=O)c1ccc(N2CC(F)(F)C2)c(OCC2CC2)n1` [Example 6, 6-Cyclopropylmethoxy-5-(3,3-difluoro-azetidin-1-yl)-pyridine-2-carboxylic acid (1,1-dimethyl-2-methylcarbamoyl-ethyl)-amide], the results for the EC50 in test [1] (setting [3]) and in test [2] (setting [4]) were > 10000 nM and 172 nM, respectively.

As for `CN(C)C(=O)CC1(NC(=O)c2ccc(N3CC(F)(F)C3)c(OCC3CC3)n2)COC1` [Example 41, 6-Cyclopropylmethoxy-5-(3,3-difluoro-azetidin-1-yl)-pyridine-2-carboxylic acid (3-dimethylcarbamoylmethyl-oxetan-3-yl)-amide], the 50% effective concentration (EC50) in test [1] (setting [3]) was > 10000 nM; in test [2] (setting [4]) it was 298 nM.

Consider `NC(=O)CC1(NC(=O)c2ccc(C3(F)COC3)c(OCC3CC3)n2)COC1` [Example 93, N-[3-(2-Amino-2-oxoethyl)oxetan-3-yl]-6-(cyclopropylmethoxy)-5-(3-fluorooxetan-3-yl)pyridine-2-carboxamide], for which the EC50 in test [1] (setting [3]) is > 10000 nM; in test [2] (setting [4]), 14.9 nM.

On to `NC(=O)CC1(NC(=O)c2ccc(C3CC3)c(OCC3CC3)n2)CS(=O)(=O)C1` [Example 77, N-[3-(2-Amino-2-oxoethyl)-1,1-dioxothietan-3-yl]-5-cyclopropyl-6-(cyclopropylmethoxy)pyridine-2-carboxamide], for which the EC50 in test [1] (setting [3]) is > 10000 nM; in test [2] (setting [4]), 0.7 nM.

Consider `NC(=O)CC1(NC(=O)c2ccc(C3CC3)c(Cc3ccc(F)cc3)n2)CNC1` [Example 81, N-[3-(2-Amino-2-oxoethyl)azetidin-3-yl]-5-cyclopropyl-6-[(4-fluorophenyl)methyl]pyridine-2-carboxamide], for which the half-maximal effective concentration (EC50) in test [1] was > 10000 nM; in test [2], 15 nM.

As for `NC(=O)CC1(NC(=O)c2ccc(N3CC(F)(F)C3)c(OCC3CC3)n2)CCNC1` (centres unmarked) [Example 84, N-[3-(2-Amino-2-oxoethyl)pyrrolidin-3-yl]-6-(cyclopropylmethoxy)-5-(3,3-difluoroazetidin-1-yl)pyridine-2-carboxamide], the EC50 is > 10000 nM in test [1] (setting [3]) and 67.6 nM in test [2] (setting [4]).

`NC(=O)CC1(NC(=O)c2ccc(N3CC(F)(F)C3)c(OCC3CC3)n2)COC1` [Example 26, 6-Cyclopropylmethoxy-5-(3,3-difluoro-azetidin-1-yl)-pyridine-2-carboxylic acid (3-carbamoylmethyl-oxetan-3-yl)-amide]: the values for the EC50 in test [1] (setting [3]) and in test [2] (setting [4]) were > 10000 nM and 5.65 nM, respectively.

For `NC(=O)CC1(NC(=O)c2ccc(C3CC3)c(OCC3CC3)n2)CCNCC1` [Example 86, N-[4-(2-Amino-2-oxoethyl)piperidin-4-yl]-5-cyclopropyl-6-(cyclopropylmethoxy)pyridine-2-carboxamide], the figures for the EC50 in test [1] (setting [3]) and in test [2] (setting [4]) were > 10000 nM and 240 nM, respectively.

As to `NC(=O)CC1(NC(=O)c2ccc(N3CC(F)(F)C3)c(OCC3CC3)n2)CCC1` [Example 70, N-[1-(2-Amino-2-oxoethyl)cyclobutyl]-6-(cyclopropylmethoxy)-5-(3,3-difluoroazetidin-1-yl)pyridine-2-carboxamide], the concentration for a half-maximal effect (EC50) in test [1] (setting [3]) is > 10000 nM; in test [2] (setting [4]), 0.6 nM.

In the case of `NC(=O)CC(NC(=O)c1ccc(C2CC2)c(OCC2CC2)n1)C1CCOCC1` (centres unmarked) [Example 30, 5-Cyclopropyl-6-cyclopropylmethoxy-pyridine-2-carboxylic acid [2-carbamoyl-1-(tetrahydro-pyran-4-yl)-ethyl]-amide], the EC50 in test [1] (setting [3]) is > 10000 nM; in test [2] (setting [4]) it was 8.3 nM.

As for `NC(=O)CC1(NC(=O)c2ccc(C3CC3)c(OCC3CCCO3)n2)CS(=O)(=O)C1` (centres unmarked) [Example 80, N-[3-(2-Amino-2-oxoethyl)-1,1-dioxothietan-3-yl]-5-cyclopropyl-6-(oxolan-2-ylmethoxy)pyridine-2-carboxamide], the values for the EC50 in test [1] (setting [3]) and in test [2] (setting [4]) were > 10000 nM and 2.4 nM, respectively.

Turning to `NC(=O)CC1(NC(=O)c2ccc(C3(O)CCC3)c(OCC3CC3)n2)CS(=O)(=O)C1` [Example 92, N-[3-(2-Amino-2-oxoethyl)-1,1-dioxothietan-3-yl]-6-(cyclopropylmethoxy)-5-(1-hydroxycyclobutyl)pyridine-2-carboxamide], the EC50 in test [1] (setting [3]) was > 10000 nM; in test [2] (setting [4]), 2.2 nM.

On to `NC(=O)CC1(NC(=O)c2ccc(C3(F)CCC3)c(OCC3CC3)n2)COC1` [Example 89, N-[3-(2-Amino-2-oxoethyl)oxetan-3-yl]-6-(cyclopropylmethoxy)-5-(1-fluorocyclobutyl)pyridine-2-carboxamide], for which the concentration for a half-maximal effect (EC50) in test [1] (setting [3]) was > 10000 nM; in test [2] (setting [4]), 11.9 nM.

Consider `NC(=O)CC(NC(=O)c1ccc(C2CC2)c(OCC2CC2)n1)C1CCOC1` (centres unmarked) [Example 64, N-[3-Amino-3-oxo-1-(oxolan-3-yl)propyl]-5-cyclopropyl-6-(cyclopropylmethoxy)pyridine-2-carboxamide], for which the concentration for a half-maximal effect (EC50) was > 10000 nM in test [1] (setting [3]) and 5.2 nM in test [2] (setting [4]).

As to `CC(C)CSc1nc(C(=O)NC2(CC(N)=O)CS(=O)(=O)C2)ccc1C1CC1` [Example 75, N-[3-(2-Amino-2-oxoethyl)-1,1-dioxothietan-3-yl]-5-cyclopropyl-6-(2-methylpropylsulfanyl)pyridine-2-carboxamide], the EC50 in test [1] (setting [3]) was > 10000 nM; in test [2] (setting [4]), 15.8 nM.

Turning to `NC(=O)CC1(NC(=O)c2ccc(C3(O)COC3)c(OCC3CC3)n2)COC1` [Example 94, N-[3-(2-Amino-2-oxoethyl)oxetan-3-yl]-6-(cyclopropylmethoxy)-5-(3-hydroxyoxetan-3-yl)pyridine-2-carboxamide], the results for the EC50 in test [1] (setting [3]) and in test [2] (setting [4]) were > 10000 nM and 251 nM, respectively.

For `NC(=O)CC(NC(=O)c1ccc(C2CC2)c(OCC2CC2)n1)C(F)(F)F` (single isomer, unassigned; (+)) [Example 32, (+)-5-Cyclopropyl-6-cyclopropylmethoxy-pyridine-2-carboxylic acid (1-carbamoylmethyl-2,2,2-trifluoro-ethyl)-amide], the 50% effective concentration (EC50) in test [1] (setting [3]) was > 10000 nM; in test [2] (setting [4]), 137 nM.

With `COC(=O)CC1(NC(=O)c2ccc(N3CC(F)(F)C3)c(OCC3CC3)n2)CCOCC1` [Example 52, (4-{[6-Cyclopropylmethoxy-5-(3,3-difluoro-azetidin-1-yl)-pyridine-2-carbonyl]-amino}-tetrahydro-pyran-4-yl)-acetic acid methyl ester], the EC50 is > 10000 nM in test [1] (setting [3]) and 74.9 nM in test [2] (setting [4]).

`NC(=O)CC1(NC(=O)c2ccc(C3CC3)c(OCC(F)(F)C(F)(F)F)n2)COC1` [Example 49, 5-Cyclopropyl-6-(2,2,3,3,3-pentafluoro-propoxy)-pyridine-2-carboxylic acid (3-carbamoylmethyl-oxetan-3-yl)-amide]: the EC50 in test [1] (setting [3]) was > 10000 nM; in test [2] (setting [4]) it was 12.7 nM.

With `O=C(O)CC1(NC(=O)c2ccc(N3CC(F)(F)C3)c(OCC3CC3)n2)CCC1` [Example 69, 2-[1-[[6-(Cyclopropylmethoxy)-5-(3,3-difluoroazetidin-1-yl)pyridine-2-carbonyl]amino]cyclobutyl]acetic acid], the EC50 in test [1] (setting [3]) is > 10000 nM; in test [2] (setting [4]) it was 302 nM.

Regarding `NC(=O)CC1(NC(=O)c2ccc(N3CC(F)(F)C3)c(OCC3CC3)n2)CNC(=O)C1` (centres unmarked) [Example 54, 6-Cyclopropylmethoxy-5-(3,3-difluoro-azetidin-1-yl)-pyridine-2-carboxylic acid (3-carbamoylmethyl-5-oxo-pyrrolidin-3-yl)-amide], the EC50 in test [1] (setting [3]) is > 10000 nM; in test [2] (setting [4]), 55 nM.

Regarding `CNC(=O)CC1(NC(=O)c2ccc(C(F)(F)F)c(OCC3CC3)n2)COC1` [Example 39, 6-Cyclopropylmethoxy-5-trifluoromethyl-pyridine-2-carboxylic acid (3-methylcarbamoylmethyl-oxetan-3-yl)-amide], the concentration giving a half-maximal response (EC50) was > 10000 nM in test [1] (setting [3]) and 599 nM in test [2] (setting [4]).

For the origin of these results see patent US9522886B2, “Pyridine derivatives” (Hoffmann-La Roche Inc., priority 2012, dated 2016).
